Test results: PMC10681007, “Targeted Degradation of XIAP is Sufficient and Specific to Induce Apoptosis in MYCN-overexpressing High-risk Neuroblastoma” (Cancer Research Communications, 2023)
Starred links: 1 amine or outer side, 2 acyl side, 3 side chain; linkers in the order of their positions; H or OH if unused. Positions of bridges follow the written chain, without caps; N, C: chain ends. Non-standard residues stand in square brackets, D forms with d. Residues, ends and D or L forms follow the SMILES beside them. Chains are numbered I, II in the order given. Hexamethylenediamine = C(CCCN[*:2])CCN[*:1]; Dip = N[C@H](C(=O)O)C(c1ccccc1)c1ccccc1; Chg = N[C@H](C(=O)O)C1CCCCC1; NMeA = CN[C@@H](C)C(=O)O

Columns and labels:
Assay in all cases: RealTime-Glo MT cell viability assay
Assay type in all cases: cell-based, Human
[1] = tested on: CHP212
Description: (§1) Cell viability was measured in real time using RealTime-Glo MT Cell Viability Assay as according to manufacturer's instructions from Promega. Cells were seeded at 1 × 10^4 cells per well and treated with a range of doses of indicated antagonists, followed by continuous bioluminescence reading every 24 hours for 3 days using luminescent plate reader, Varioskan (SkanIT software). IC50 was determined using GraphPad Prism software.
(§2) To determine their efficacy in neuroblastoma, a panel of neuroblastoma cell lines including neuroblastoma patient-derived cell lines and noncancerous normal tissue-derived cell lines were treated with increasing doses of each antagonist (0–100 µmol/L), followed by real-time measurement of cell viability every 24 for 72 hours.

[2] = tested on: NBL-07-0317 patient-derived neuroblastoma cells
Description: as §1, §2

[3] = tested on: NBL27-0218A patient-derived neuroblastoma cells
Description: as §1, §2

[4] = tested on: SK-N-AS
Description: as §1, §2

[5] = tested on: SK-N-SH
Description: as §1, §2

CN[C@@H](C)C(=O)N[C@H](C(=O)N1CCC[C@H]1C(=O)N[C@H](C(=O)NCCCCCCNC(=O)[C@@H](NC(=O)[C@@H]1CCCN1C(=O)[C@@H](NC(=O)[C@H](C)NC)C1CCCCC1)C(c1ccccc1)c1ccccc1)C(c1ccccc1)c1ccccc1)C1CCCCC1 [BV6] (I: H-[NMeA][Chg]P[Dip] / II: H-[NMeA][Chg]P[Dip]; linker I:C-II:C via Hexamethylenediamine)
IC50 ([1]; CHP212, 24 hours): 10.4 µM
IC50 ([1]; CHP212, 48 hours): 9.9 µM
IC50 ([1]; CHP212, 72 hours): 9.3 µM
IC50 ([2]; NBL-07-0317, 24 hours): 8.1 µM
IC50 ([2]; NBL-07-0317, 48 hours): 5.5 µM
IC50 ([2]; NBL-07-0317, 72 hours): 4.8 µM
IC50 ([3]; 24 hours): 5.9 µM
IC50 ([3]; 48 hours): 3.6 µM
IC50 ([3]; 72 hours): 2.6 µM
IC50 ([4]; 24 hours): 4.6 µM
IC50 ([4]; 48 hours): 3.2 µM
IC50 ([4]; 72 hours): 2.6 µM
IC50 ([5]; 24 hours): 12.4 µM
IC50 ([5]; 48 hours): 10.5 µM
IC50 ([5]; 72 hours): 9.7 µM
